From patent US8802597B2, “Herbicidal pyrimidines” (E I du Pont de Nemours and Company, priority 2003, dated 2014) come the findings set out here.

Common to all, as to assay: Test B flooded paddy test
Common to all, as to format: in vivo
What all share (conditions): Flood, scale 0 to 100

Assay [1] relates to umbrella sedge (Cyperus difformis). A digest of the protocol: (§1)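 Plants were grown to the 2-leaf stage before treatment, then kept in a greenhouse for 13 to 15 days. Injury was rated visually against untreated controls on a 0 to 100 scale, where 0 is no effect and 100 is complete control.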
Assay [2] deals with barnyardgrass (Echinochloa crus-galli). A digest of the protocol: as §1
In assay [3] the test system is rice (Oryza sativa). A digest of the protocol:
as §1

For assay [4], the system named is duck salad (Heteranthera limosa). In a few lines: as §1
The mark [5] stands for this setting: Cyperus difformis, 125 g ai/ha, read-out: Plant response rating, Sedge, Umbrella.
Where [6] appears, read: Cyperus difformis, 500 g ai/ha, read-out: Plant response rating, Sedge, Umbrella.
[7] abbreviates: Echinochloa crus-galli, 125 g ai/ha, read-out: Plant response rating, Barnyardgrass.
Setting [8] is: Echinochloa crus-galli, 500 g ai/ha, read-out: Plant response rating, Barnyardgrass.
The mark [9] stands for this setting: Oryza sativa, 125 g ai/ha, read-out: Plant response rating, Rice.
The mark [10] stands for this setting: Oryza sativa, 500 g ai/ha, read-out: Plant response rating, Rice.
The mark [11] stands for this setting: Heteranthera limosa, 125 g ai/ha, read-out: Plant response rating, Ducksalad.
Where [12] appears, read: Heteranthera limosa, 500 g ai/ha, read-out: Plant response rating, Ducksalad.

For the compound `CCOC(=O)c1nc(-c2ccc(Cl)cc2)nc(N)c1Cl` [Compound 64, ethyl 6-amino-5-chloro-2-(4-chlorophenyl)-4-pyrimidinecarboxylate], the pest or weed control at 62 g/ha in assay [1] (Cyperus difformis, 62 g ai/ha, read-out: Plant response rating, Sedge, Umbrella) was found to be 0%; in assay [2] (Echinochloa crus-galli, 62 g ai/ha, read-out: Plant response rating, Barnyardgrass) it was 0%; in assay [4] (Heteranthera limosa, 62 g ai/ha, read-out: Plant response rating, Ducksalad), 80%. The figures for the pest or weed control at 125 g/ha in assay [1] (setting [5]), in assay [2] (setting [7]) and in assay [4] (setting [11]) were 0%, 0% and 90%, respectively. Moreover, the pest or weed control at 250 g/ha in assay [1] (Cyperus difformis, 250 g ai/ha, read-out: Plant response rating, Sedge, Umbrella) was 70%; in assay [2] (Echinochloa crus-galli, 250 g ai/ha, read-out: Plant response rating, Barnyardgrass) it was 0%; in assay [4] (Heteranthera limosa, 250 g ai/ha, read-out: Plant response rating, Ducksalad), 100%. For the same compound, the pest or weed control at 500 g/ha is 90% in assay [1] (setting [6]), 0% in assay [2] (setting [8]) and 100% in assay [4] (setting [12]). The plant injury at 62 g/ha in assay [3] (Oryza sativa, 62 g ai/ha, read-out: Plant response rating, Rice) is 0%. Besides, the plant injury at 125 g/ha in assay [3] (setting [9]) is 0%. The plant injury at 250 g/ha in assay [3] (Oryza sativa, 250 g ai/ha, read-out: Plant response rating, Rice) worked out at 0%. The plant injury at 500 g/ha in assay [3] (setting [10]) was 0%.

As to `Cc1ccc(-c2nc(N)c(Cl)c(C(=O)O)n2)cc1` [Compound 91], the “Plant response rating, Sedge, Umbrella” value came out at 80 in assay [1] (125 g ai/ha) and 90 in assay [1] (500 g ai/ha). Besides, the “Plant response rating, Barnyardgrass” value in assay [2] (125 g ai/ha) is recorded as 0; in assay [2] (500 g ai/ha), 20. The “Plant response rating, Rice” value in assay [3] (125 g ai/ha) and in assay [3] (500 g ai/ha) was 0 throughout. Further, the “Plant response rating, Ducksalad” value in assay [4] (125 g ai/ha) and in assay [4] (500 g ai/ha) was 100 in each case.

On to `COC(=O)c1nc(-c2ccc(Br)cc2)nc(N)c1Cl` [Compound 96, methyl 6-amino-2-(4-bromophenyl)-5-chloro-4-pyrimidinecarboxylate], for which the values for the pest or weed control at 125 g/ha in assay [1] (setting [5]), in assay [2] (setting [7]) and in assay [4] (setting [11]) were 90%, 0% and 100%, respectively. Also, the pest or weed control at 500 g/ha was found to be 90% in assay [1] (setting [6]), 10% in assay [2] (setting [8]) and 100% in assay [4] (setting [12]). Further, the plant injury at 125 g/ha in assay [3] (setting [9]) came to 0%. The plant injury at 500 g/ha in assay [3] (setting [10]) stood at 0%.

With `COC(=O)c1nc(C2CC2)nc(N)c1OC` [Compound 59], the pest or weed control at 125 g/ha in assay [1] (setting [5]), in assay [2] (setting [7]) and in assay [4] (setting [11]) was 0% in each case. The pest or weed control at 500 g/ha in assay [1] (setting [6]), in assay [2] (setting [8]) and in assay [4] (setting [12]) was 0% in each case. For the same compound, the plant injury at 125 g/ha in assay [3] (setting [9]) was determined as 0%. The plant injury at 500 g/ha in assay [3] (setting [10]) came out at 0%.
